Results: ChEMBL document CHEMBL1143055, “2,3,5-Substituted tetrahydrofurans as cancer chemopreventives. Part 1: synthesis and anti-cancer activities of 5-hydroxymethyl-2,3-diaryl-tetrahydro-furan-3-ols” (2007)

Experiments:
OVCAR-3 = test: Antitumor activity against human OVCAR-3 cells; type: functional
DU-145 = test: Antitumor activity against human DU145 cells; type: functional
CCRF-CEM [1] = test: Antitumor activity against human CCRF-CEM cells; type: functional
MOLT-4 = test: Antitumor activity against human MOLT4 cells; type: functional
Malme-3M = test: Antitumor activity against human MALME-3M cells; type: functional
NCI-H23 = test: Antitumor activity against human NCI-H23 cells; type: functional
U-251 = test: Antitumor activity against human U251 cells; type: functional
[2] = Antitumor activity against human HL60 (TB) cells; type: functional, HL-60(TB); settings: HL-60
[3] = Antitumor activity against human HS 578T cells; type: functional
MCF7 = test: Antitumor activity against human MCF7 cells; type: functional
MDA-MB-435 = test: Antitumor activity against human MDA-MB-435 cells; type: functional
[4] = Antitumor activity against human […] cells; type: functional
OVCAR-5 = test: Antitumor activity against human OVCAR5 cells; type: functional
A549 = test: Antitumor activity against human A549 cells; type: functional
UACC-62 = test: Antitumor activity against human UACC62 cells; type: functional
RXF 393 = test: Antitumor activity against human RXF393 cells; type: functional
BT-549 = test: Antitumor activity against human BT549 cells; type: functional
SK-OV-3 = test: Antitumor activity against human SK-OV-3 cells; type: functional
786-0 = test: Antitumor activity against human 786-0 cells; type: functional
KM12 = test: Antitumor activity against human KM12 cells; type: functional
SF-539 = test: Antitumor activity against human SF539 cells; type: functional
LOX IMVI = test: Antitumor activity against human LOX IMVI cells; type: functional
TK-10 = test: Antitumor activity against human TK10 cells; type: functional
SN12C = test: Antitumor activity against human SN12C cells; type: functional
[5] = Antitumor activity against human NCI-H322 cells; type: functional
SNB-19 = test: Antitumor activity against human SNB19 cells; type: functional
SNB-75 = test: Antitumor activity against human SNB75 cells; type: functional
CCRF-CEM [6] = test: Growth inhibition of huam CCRF-CEM at 1 uM; type: functional; settings: Homo sapiens
COLO 205 = test: Antitumor activity against human COLO205 cells; type: functional
PC-3 = test: Antitumor activity against human PC3 cells; type: functional
HCC 2998 = test: Antitumor activity against human HCC2998 cells; type: functional
UO-31 = test: Antitumor activity against human UO31 cells; type: functional
NCI-H226 = test: Antitumor activity against human NCI-H226 cells; type: functional
K562 = test: Antitumor activity against human K562 cells; type: functional
HCT-116 = test: Antitumor activity against human HCT116 cells; type: functional
CAKI-1 = test: Antitumor activity against human CAKI-1 cells; type: functional
NCI-H460 = test: Antitumor activity against human NCI-H460 cells; type: functional
RPMI-8226 = test: Antitumor activity against human RPMI8226 cells; type: functional
HT-29 = test: Antitumor activity against human HT29 cells; type: functional
NCI/ADR-RES = test: Antitumor activity against human NCI/ADR-RES cells; type: functional
OVCAR-4 = test: Antitumor activity against human OVCAR4 cells; type: functional
SW-620 = test: Antitumor activity against human SW620 cells; type: functional
SF-268 = test: Antitumor activity against human SF268 cells; type: functional
SF-295 = test: Antitumor activity against human SF295 cells; type: functional
SK-MEL-28 = test: Antitumor activity against human SK-MEL-28 cells; type: functional
SR [7] = test: Growth inhibition of human SR cells at 1 uM; type: functional
A498 = test: Antitumor activity against human A498 cells; type: functional
HOP-62 = test: Antitumor activity against human HOP62 cells; type: functional
ACHN = test: Antitumor activity against human ACHN cells; type: functional
EKVX = test: Antitumor activity against human EKVX cells; type: functional
HOP-92 = test: Antitumor activity against human HOP92 cells; type: functional
UACC-257 = test: Antitumor activity against human UACC257 cells; type: functional
SK-MEL-5 = test: Antitumor activity against human SK-MEL-5 cells; type: functional
HCT-15 = test: Antitumor activity against human HCT15 cells; type: functional
NCI-H522 [8] = test: Antitumor activity against human NCI-H522 cells; type: functional
OVCAR-8 = test: Antitumor activity against human OVCAR8 cells; type: functional
SR [9] = test: Antitumor activity against human SR cells; type: functional
[10] = Growth inhibition of human HS 578T cells at 10 nM; type: functional
IGROV-1 [11] = test: Growth inhibition of human IGROV1 cells at 10 nM; type: functional
IGROV-1 [12] = test: Growth inhibition of human IGROV1 cells at 1 uM; type: functional
IGROV-1 [13] = test: Antitumor activity against human IGROV1 cells; type: functional
IGROV-1 [14] = test: Growth inhibition of human IGROV1 cells at 10 uM; type: functional
IGROV-1 [15] = test: Growth inhibition of human IGROV1 cells at 0.1 uM; type: functional
NCI-H522 [16] = test: Growth inhibition of human NCI-H522 cells at 1 uM; type: functional
NCI-H522 [17] = test: Growth inhibition of human NCI-H522 cells at 10 uM; type: functional

Compound: OC[C@H]1C[C@](O)(c2ccc(Cl)cc2)[C@@H](c2ccc(Cl)cc2)O1 (relative stereo)
- GI50 (OVCAR-3): 26.3 µM
- GI50 (DU-145): 21.9 µM
- GI50 (CCRF-CEM [1]): 0.468 µM
- GI50 (MOLT-4): 17.8 µM
- GI50 (Malme-3M): 21.4 µM
- GI50 (NCI-H23): 24.5 µM
- GI50 (U-251): 24.5 µM
- GI50 [2]: 17.4 µM
- GI50 [3]: 18.2 µM
- GI50 (MCF7): 30.2 µM
- GI50 (MDA-MB-435): 22.9 µM
- GI50 [4]: 19.5 µM
- GI50 (OVCAR-5): 25.7 µM
- GI50 (A549): 29.5 µM
- GI50 (UACC-62): 15.8 µM
- GI50 (RXF 393): 20.9 µM
- GI50 (BT-549): 16.6 µM
- GI50 (SK-OV-3): 39.8 µM
- GI50 (786-0): 22.4 µM
- GI50 (KM12): 20.4 µM
- GI50 (SF-539): 23.4 µM
- GI50 (LOX IMVI): 17.8 µM
- GI50 (TK-10): 30.2 µM
- GI50 (SN12C): 17 µM
- GI50 [5]: 35.5 µM
- GI50 (SNB-19): 38 µM
- GI50 (SNB-75): 22.9 µM
- inhibition at 1 µM (CCRF-CEM [6]): 71%
- GI50 (COLO 205): 25.7 µM
- GI50 (PC-3): 20 µM
- GI50 (HCC 2998): 24 µM
- GI50 (UO-31): 19.5 µM
- GI50 (NCI-H226): 26.3 µM
- GI50 (K562): 25.1 µM
- GI50 (HCT-116): 17.4 µM
- GI50 (CAKI-1): 26.9 µM
- GI50 (NCI-H460): 20 µM
- GI50 (RPMI-8226): 13.8 µM
- GI50 (HT-29): 24 µM
- GI50 (NCI/ADR-RES): 30.2 µM
- GI50 (OVCAR-4): 32.4 µM
- GI50 (SW-620): 27.5 µM
- GI50 (SF-268): 26.9 µM
- GI50 (SF-295): 30.2 µM
- GI50 (SK-MEL-28): 28.8 µM
- inhibition at 1 µM (SR [7]): 87%
- GI50 (A498): 24.5 µM
- GI50 (HOP-62): 20.9 µM
- GI50 (ACHN): 28.2 µM
- GI50 (EKVX): 18.2 µM
- GI50 (HOP-92): 17 µM
- GI50 (UACC-257): 21.4 µM
- GI50 (SK-MEL-5): 15.1 µM
- GI50 (HCT-15): 31.6 µM
- GI50 (NCI-H522 [8]): 26.3 µM
- GI50 (OVCAR-8): 30.9 µM
- GI50 (SR [9]): 20.4 µM
- inhibition at 0.01 µM [10]: 21%

Compound: OC[C@H]1C[C@](O)(c2ccccc2Cl)[C@@H](c2ccccc2Cl)O1 (relative stereo)
- GI50 (OVCAR-3): 19.5 µM
- GI50 (DU-145): 26.9 µM
- GI50 (CCRF-CEM [1]): 27.5 µM
- GI50 (MOLT-4): 17 µM
- GI50 (Malme-3M): 21.4 µM
- GI50 (NCI-H23): 25.7 µM
- GI50 (U-251): 28.2 µM
- GI50 [2]: 16.6 µM
- GI50 [3]: 16.2 µM
- GI50 (MCF7): 26.9 µM
- inhibition at 0.01 µM (IGROV-1 [11]): 15%
- GI50 (MDA-MB-435): 16.2 µM
- GI50 [4]: 18.6 µM
- GI50 (OVCAR-5): 22.9 µM
- GI50 (A549): 22.9 µM
- GI50 (UACC-62): 16.6 µM
- GI50 (RXF 393): 18.6 µM
- GI50 (BT-549): 17 µM
- inhibition at 1 µM (IGROV-1 [12]): 32%
- GI50 (IGROV-1 [13]): 11 µM
- GI50 (SK-OV-3): 23.4 µM
- GI50 (786-0): 26.3 µM
- GI50 (KM12): 25.7 µM
- GI50 (SF-539): 22.4 µM
- GI50 (LOX IMVI): 17 µM
- GI50 (TK-10): 20.9 µM
- GI50 (SN12C): 20.9 µM
- GI50 [5]: 32.4 µM
- GI50 (SNB-19): 31.6 µM
- inhibition at 10 µM (IGROV-1 [14]): 46%
- GI50 (SNB-75): 20.9 µM
- GI50 (COLO 205): 14.8 µM
- GI50 (PC-3): 24 µM
- inhibition at 0.1 µM (IGROV-1 [15]): 28%
- GI50 (HCC 2998): 29.5 µM
- GI50 (UO-31): 22.9 µM
- GI50 (NCI-H226): 26.3 µM
- GI50 (K562): 20 µM
- GI50 (HCT-116): 25.7 µM
- GI50 (CAKI-1): 32.4 µM
- GI50 (NCI-H460): 20 µM
- GI50 (RPMI-8226): 21.9 µM
- GI50 (HT-29): 17 µM
- inhibition at 1 µM (NCI-H522 [16]): 27%
- GI50 (NCI/ADR-RES): 29.5 µM
- GI50 (OVCAR-4): 24.5 µM
- GI50 (SW-620): 30.2 µM
- GI50 (SF-268): 24 µM
- GI50 (SF-295): 26.9 µM
- GI50 (SK-MEL-28): 26.3 µM
- GI50 (A498): 22.9 µM
- inhibition at 10 µM (NCI-H522 [17]): 36%
- GI50 (HOP-62): 31.6 µM
- GI50 (ACHN): 27.5 µM
- GI50 (EKVX): 19.1 µM
- GI50 (HOP-92): 22.4 µM
- GI50 (UACC-257): 19.1 µM
- GI50 (SK-MEL-5): 17 µM
- GI50 (HCT-15): 28.2 µM
- GI50 (NCI-H522 [8]): 13.5 µM
- GI50 (OVCAR-8): 26.3 µM
- GI50 (SR [9]): 17 µM
